The text below walks through data of patent publication EP0931077B1, “SUBSTITUTED BENZOCYCLOHEPTAPYRIDINE USEFUL AS INHIBITORS OF FARNESYL-PROTEIN TRANSFERASE” (SCHERING CORPORATION, priority 1996, dated 1998).

This experiment addresses farnesyl-protein transferase (Homo sapiens, UniProt P49354+P49356). In words: FPT inhibition (in vitro farnesyl protein transferase inhibition). It counts as biochemical.

Regarding `O=C(NCc1cccnc1)[C@@H]1CCCN1C1c2ccc(Cl)cc2CCc2cc(Br)cnc21` (single isomer, unassigned) [Example 1 Isomer A, 1-(3-Brorno-8-chloro-6,11-dihydro-5H-benzo[5,6]cyclohepta[1,2-b]pyridine-11-yl)-N-(3-pyridinylmethyl)2-pyrrolidine carboxamide], the IC50 worked out at 59 nM.

Consider `O=C(NCc1cccnc1)C1CCCN1C1c2ncc(Br)cc2CCc2cc(Cl)cc(Br)c21` (single isomer, unassigned) [Example 2 Isomer B, 1-(3,10-dibromo-8-chloro-6,11-dihydro-5H-benzo[5,6]cyclohepta[1,2-b]pyridine-11-yl)-N-(3-pyridinylmethyl)-2-pyrrolidine carboxamide], for which half-maximal inhibition (IC50) was put at 5.2 nM. This IC50 lies about 11-fold lower than the previous one.

As for `O=C(NCc1cccnc1)C1CCN1C1c2ccc(Cl)cc2CCc2cc(Br)cnc21` (single isomer, unassigned) [Example 3 Isomer B, 1-(3-bromo-8-chloro-6,11-dihydro-5H-benzo[5,6]cyclohepta[1,2-b]pyridine-11-yl)-N-(3-pyridinylmethyl)2-azetidine carboxamide], the inhibition at 0.1 µM (@0.1 µM) was found to be 17%.

`O=C(NCc1cccnc1)C1CCN1C1c2ccc(Cl)cc2CCc2cc(Br)cnc21` (single isomer, unassigned) [Example 3 Isomer A, 1-(3-bromo-8-chloro-6,11-dihydro-5H-benzo[5,6]cyclohepta[1,2-b]pyridine-11-yl)-N-(3-pyridinylmethyl)2-azetidine carboxamide] displayed a half-inhibitory concentration (IC50) of 1050 nM.

On to `O=C(NCc1cccnc1)[C@@H]1CCCN1C1c2ccc(Cl)cc2CCc2cc(Br)cnc21` (single isomer, unassigned) [Example 1 Isomer B, 1-(3-Brorno-8-chloro-6,11-dihydro-5H-benzo[5,6]cyclohepta[1,2-b]pyridine-11-yl)-N-(3-pyridinylmethyl)2-pyrrolidine carboxamide], for which it took 140 nM to reach half-maximal inhibition (IC50).

Under “@ 0.3 µM”, `O=C(NCc1cccnc1)C1CCCN1C1c2ncc(Br)cc2CCc2cc(Cl)cc(Br)c21` (single isomer, unassigned) [Example 2 Isomer A, 1-(3,10-dibromo-8-chloro-6,11-dihydro-5H-benzo[5,6]cyclohepta[1,2-b]pyridine-11-yl)-N-(3-pyridinylmethyl)-2-pyrrolidine carboxamide] returned an inhibition at 0.3 µM of 15%.
